Experimental data taken from US12458622B2, “Methods of treatment of coronavirus-induced inflammation conditions” (priority 2020, dated 2025).

Assays:
[1] = test system: HMC3 human microglia cells; assay: MSD U-PLEX cytokine secretion induced by TNF-α; type: cell-based; parameters: increase in IL-1β secretion compared to untreated HMC3 cells / increase in IL-6 secretion compared to untreated HMC3 cells / increase in IL-8 secretion compared to untreated HMC3 cells / IFN-γ secretion: dose or concentration left out as unconfirmed; conditions: for inhibition at 3 µM: Homo sapiens, HMC3
Description: (§1) Human microglial cell line HMC3 (CRL-3304) was purchased from ATCC (American Type Culture Collection). HMC3 cell line was cultured in DMEM medium with 10% FBS, 1% L-glutamine, and 1% penicillin/streptomycin. Cells were maintained in 37° C. incubator at 5% CO2.
(§2) HMC3 cells were resuspended, counted using the LUNA-II Automated Cell Counter, seeded in the 6-well plate (400 K cells/2 mL medium/well), and incubated overnight to allow cells to attach. The media and detached cells were removed next day. The cell layer was washed three times in PBS and once in serum- and phenolred-free DMEM (SPFM). […] The conditioned medium was collected and centrifuged at 1,000×RCF (g) for 5 min to pellet detached cells and large debris, which was subsequently passed through a 0.22 μm filter with PVDF membrane to remove smaller debris. Samples of the supernatant medium were put in a CoolRack (#07210041, Fisher Scientific) on dry ice for Snap-freezing and kept at −80° C. until use.
(§3) Meso-scale U-PLEX plates that detect a cytokine panel including IL-1β, IL-2, IL-4, IL-6, IL-8, IL-10, IFN-γ, TNF-α, and a chemokine panel including IP-10/CXCL10, MCP-1/CCL2, MIP-1α/CCL3, MIP-1P/CCL4, Eotaxin/CCL11, were used as per manufacture's protocol. 25 μL of the conditioned medium was used in each well of the MSD plates to detect the analytes. The plates were then analyzed on an MSD QuickPlex SQ120 instrument.
(§4) All the data were presented as mean±standard error from at least three times, each done in triplicate. The statistical significance between two groups was determined by Student's t test, whereas the comparisons of multiple groups were carried out by one-way ANOVA, followed by Bonferroni's post-test using GraphPad Prism 7 (GraphPad Software, Inc.). A probability value of * p<0.05 was considered to be significant.

[2] = test system: HMC3 human microglia cells; assay: Cell viability assay by AO/PI stain; type: cell-based; conditions: for microglia death: 300 ng/mL, 24 hr
Description: as §1
(§5) HMC3 cells were resuspended, counted using the LUNA-II Automated Cell Counter, seeded in the 6-well plate (300 K cells/2 mL medium/well), and incubated overnight to allow cells to attach. Cells were treated with TNF-α or IFN-γ at five different concentrations (0, 10, 30, 100, 300 ng/mL) for 24 hr to induce cell activation. The supernatant medium was completely aspirated and 1 mL of fresh DMEM was added to wash the cell layer to remove detached cells and debris. The attached cells were resuspended and washed with PBS. Cells were washed with FACS buffer (2% FBS in PBS) prior to incubation with Zombie Violet Fixable Viability Dye (#423114, Biolegend, 1:500 dilution) and Human Fe Receptor Blocking Solution (#422302, Biolegend, 1:20) diluted in FACS buffer at RT for 10 min in the dark. Cells were then washed with FACS buffer and incubated at RT for 20 min with the following cell-surface antibodies: FITC anti-MHC II (#361706, Biolegend), PerCP/Cy5.5 anti-CD11b (#301328, Biolegend), BV605 anti-CD40 (#334336, Biolegend), PE anti-CD86 (#374206, Biolegend), PE/Cy7 anti-CD163 (#326514, Biolegend), APC anti-CD206 (#321110, Biolegend), and PerCP/Cy5.5 anti-CD14 (#367110, Biolegend). All of the cell-surface antibodies were diluted 1:20 in FACS buffer. Cells were permeabilized using the Transcription Factor Fixation/Permeabilization Buffer Set (#424401, Biolegend). Then cells were incubated with the following intracellular antibodies: APC/Cy7 anti-CD68 (#333822, Biolegend), purified anti-IBA1 (#PA5-27436, Invitrogen), Goat anti-Rabbit-Alexa Fluor 647 (#A21245, Invitrogen), purified anti-GFAP (#644702, Biolegend), and Goat anti-Mouse-Alexa Fluor 488 (#11029, Invitrogen). All of the intracellular antibodies were diluted 1:100 in the Permeabilization buffer (lx). Cells were washed with Permeabilization buffer and fixed in Fixation Buffer (#420801, Biolegend). Flow cytometry was performed using the Attune NxT Acoustic Focusing Cytometer (Thermo Fisher Scientific). Analysis of flow cytometry data was performed via FCS Express 7 (DeNovo Software).
Cell viability was assessed with a LUNA-FL Automated fluorescence cell counter. Viable nucleated cells show green fluorescence and dying nucleated cells show red fluorescence. 18 µL of sample was mixed with 2 μL Acridine Orange/Propidium Iodide (AO/PI) Stain.
as §4

[3] = test system: HMC3 human microglia cells; assay: Flow cytometry of microglia activation biomarkers; type: cell-based; conditions: 300 ng/mL, 24 hr
Description: as §1
as §5, with “Cells were washed with Permeabilization buffer and fixed in Fixation Buffer (#420801, Biolegend). Flow cytometry was performed using the Attune NxT Acoustic Focusing Cytometer (Thermo Fisher Scientific). Analysis of flow cytometry data was performed via FCS Express 7 (DeNovo Software).” left out

[4] = test system: HMC3 human microglia cells; assay: MSD U-PLEX chemokine secretion induced by TNF-α; type: cell-based; conditions: 0.3 μg/mL TNF-α, 24 hours; for inhibition at 3 µM: Homo sapiens, HMC3
Description: as §1, §2, §3, §4

H5N1 virus = conditions: after H5N1 virus infection; cited from earlier work

TNF-α
IFN-γ secretion ([1]; 24 hours): caused the previously quiescent cells to secrete IFN-γ | increase in IL-1β secretion compared to untreated HMC3 cells ([1]; 24 hours): > 177 fold | increase in IL-6 secretion compared to untreated HMC3 cells ([1]; 24 hours): > 177 fold | increase in IL-8 secretion compared to untreated HMC3 cells ([1]; 24 hours): > 177 fold | microglia death [2]: 15.6% | cell death, share of the total population ([2]; TNF-α 0.3 μg/mL): approximately 20% | expression of inflammatory microglia biomarkers [3]: increases the expression

O=C(O)c1cc(=O)c2c(OCC(F)COc3cccc4oc(C(=O)O)cc(=O)c34)cccc2o1 [F-cromolyn]
IFN-γ concentration ([1]; 0.3 μM, TNF-α induced, 24 hr): decreased | IL-1β concentration ([1]; 0.3 μM, TNF-α induced, 24 hr): decreased | IL-6 concentration ([1]; 0.3 μM, TNF-α induced, 24 hr): decreased | IL-8 concentration ([1]; 0.3 μM, TNF-α induced, 24 hr): decreased | inhibition at 3 µM ([1]; TNF-α induced, 24 hr, read-out: inhibition of IFN-γ): > 50% | inhibition at 3 µM ([1]; TNF-α induced, 24 hr, read-out: inhibition of IL-1β): > 50% | inhibition at 3 µM ([1]; TNF-α induced, 24 hr, read-out: inhibition of IL-6): 39.8% | inhibition at 3 µM ([1]; TNF-α induced, 24 hr, read-out: inhibition of IL-8): 27.9% | extracellular IP-10 (CXCL10) ([4]; 0.3 μM): can inhibit | extracellular MCP-1 (CCL2) ([4]; 0.3 μM): can inhibit | extracellular MIP-1α (CCL3) ([4]; 0.3 μM): can inhibit | extracellular MIP-1β (CCL4) ([4]; 0.3 μM): can inhibit | inhibition at 3 µM ([4]; read-out: inhibition of IP-10 (CXCL10)): > 40% | inhibition at 3 µM ([4]; read-out: inhibition of MCP-1 (CCL2)): > 40% | inhibition at 3 µM ([4]; read-out: inhibition of MIP-1α (CCL3)): 36% | inhibition at 3 µM ([4]; read-out: inhibition of MIP-1β (CCL4)): > 40% | TNF-α induced cell death ([2]; 0.3 μM, TNF-α 0.3 μg/mL): significantly reduced cell death

CN1CCC(=C2c3ccccc3CC(=O)c3sccc32)CC1 [ketotifen]
lung injury (H5N1 virus): improved

IFN-γ: recombinant human IFN-γ, used to activate HMC3 microglia
microglia death [2]: 19.7% | expression of anti-inflammatory microglia biomarkers (CD163 and CD206) [3]: no alteration | expression of inflammatory microglia biomarkers [3]: increased protein expression
